1 compound from ChEMBL document CHEMBL2157874, “First total synthesis of prasinic acid and its anticancer activity” (Bioorg Med Chem Lett, 2012) can be followed below.

Broadly, the pIC50 is the IC50 on a negative log10 scale, so that one unit is a factor of ten. Read a low pIC50 as a high IC50.

For one assay, the system named is HCT-116. Put plainly: Cytotoxicity against human HCT116 cells after 48 hrs by modified propidium iodide assay. Conditions: HCT-116, 48 h. The format is functional, cell-based.
Another assay relates to ACHN. The assay is described as follows: Cytotoxicity against human ACHN cells after 48 hrs by modified propidium iodide assay. The format is functional, cell-based.
A further assay deals with Calu-1. Put plainly: Cytotoxicity against human Calu1 cells after 48 hrs by modified propidium iodide assay. The settings on record: Calu-1, 48 h. It counts as functional, cell-based.
A further assay relates to NCI-H460. The assay is described as follows: Cytotoxicity against human H460 cells after 48 hrs by modified propidium iodide assay. The format is functional, cell-based. Conditions: NCI-H460, 48 h.
The subject of the next assay is MCF-10A. Put plainly: Cytotoxicity against human MCF10A cells after 48 hrs by modified propidium iodide assay. It counts as cell-based.
Another assay concerns PANC-1. Put plainly: Cytotoxicity against human PANC1 cells after 48 hrs by modified propidium iodide assay. The format is functional, cell-based. Conditions: PANC-1, 48 h.

SMILES strings stand for the structures. pIC50: −log10 of the molar value.

As to `CCCCCCCc1cc(OC(=O)c2c(O)cc(O)cc2CCCCCCC)cc(O)c1C(=O)O` [PRASINIC ACID], the pIC50 in the assay with HCT-116 is 5.11; in the assay with ACHN, 5.09; in the assay on Calu-1, 5.37; with NCI-H460, 5.04; with MCF-10A it was less than 4.52; in the assay on PANC-1, 5.07.
